Measured values: patent US8722849B2, “Polypeptides” (Novo Nordisk A/S, priority 2011, dated 2014)
Converted amounts (≈) assume the structure as drawn. Read-outs that look alike come from different tables or passages of the source. Starred links: 1 amine or outer side, 2 acyl side, 3 side chain; linkers in the order of their positions; H or OH if unused. Positions of bridges follow the written chain, without caps; N, C: chain ends. Residues, ends and D or L forms follow the SMILES beside them. *: point of attachment. C20 diacid = O=C(O)CCCCCCCCCCCCCCCCCCC(=O)*; γGlu = O=C(O)[C@H](CCC(=O)[*:2])N[*:1]

How the values were obtained:
[1] = target: T1, rat calcitonin (a) receptor (Rattus norvegicus, UniProt P32214); test: Assay (II)b functional cAMP FlashPlate assay, rat calcitonin receptor; type: cell-based; details: Table 11; read-out: CTa receptor rat EC50
T1 construct: expressed in transfected cells; host or cells: BHK tk'ts 13
T1 sequence (P32214 25-479 isoform P32214-2 limits assumed): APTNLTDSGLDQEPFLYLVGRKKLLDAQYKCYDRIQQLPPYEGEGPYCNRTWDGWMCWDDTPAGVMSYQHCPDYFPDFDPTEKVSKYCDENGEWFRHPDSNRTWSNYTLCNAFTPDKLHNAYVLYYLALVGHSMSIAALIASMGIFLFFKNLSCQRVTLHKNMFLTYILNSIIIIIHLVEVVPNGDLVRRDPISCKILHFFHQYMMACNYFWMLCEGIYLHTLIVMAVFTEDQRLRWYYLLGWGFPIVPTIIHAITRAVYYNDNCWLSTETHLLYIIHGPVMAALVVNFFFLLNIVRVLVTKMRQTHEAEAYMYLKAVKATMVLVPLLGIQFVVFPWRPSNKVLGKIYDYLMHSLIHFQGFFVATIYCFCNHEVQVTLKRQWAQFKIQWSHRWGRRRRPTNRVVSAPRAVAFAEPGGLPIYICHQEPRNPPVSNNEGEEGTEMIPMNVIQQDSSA
Text: (§1) Assay (II)b—Rat Calcitonin and Rat Amylin Receptor Assays
(§2) Activation of calcitonin and amylin (coexpression of calcitonin receptor and receptor activity modifying proteins (RAMP)) receptors lead to increased intracellular concentrations of cAMP. In order to quantify the cAMP levels in transiently transfected cells the Adenylyl Cyclase Activation FlashPlate® Assay from […] was used. The basic principle of the FlashPlate® Assay is a competition between radioactive and non-radioactive cAMP generated by the cells for a fixed number of binding sites.
(§3) Construction of rat calcitonin(a)—and rat amylin 3(a)-receptor cells.
(§4) BHK tk'ts 13 cells were transiently transfected with either rat calcitonin (a) receptor or amylin 3 (a) receptor (rat calcitonin(a) receptor+ rat RAMP3) using FuGENE® 6 (ROCHE), according to the manufacturers recommendations.
(§5) 24 hours after transient transfection the cells (rat calcitonin(a)—or rat amylin 3(a)—receptor cells) were added (100.000 cells/well) to the 96 well FlashPlates® with samples or standard in FlashPlate stimulation buffer with IBMX and incubated for 30 min. Detection mix was created according to manufacturers protocol and scintillation measured after 3 h of incubation on TopCounter™ (Packard).

[2] = target: T2, rat amylin 3(a) receptor (rat calcitonin(a) receptor + rat RAMP3) (Rattus norvegicus, UniProt P32214+Q9JJ73); test: Assay (II)b functional cAMP FlashPlate assay, rat amylin receptor; type: cell-based; details: Table 11
T2 construct: expressed in transfected cells; host or cells: BHK tk'ts 13
T2 sequence (P32214 25-479 isoform P32214-2 limits assumed): T1 sequence (P32214 25-479 isoform P32214-2 limits assumed)
T2 sequence (Q9JJ73 23-147 partner): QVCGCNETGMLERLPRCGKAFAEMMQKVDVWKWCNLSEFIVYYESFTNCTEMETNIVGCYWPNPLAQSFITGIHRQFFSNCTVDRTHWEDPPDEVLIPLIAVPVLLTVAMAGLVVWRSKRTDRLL
Text: as §1, §2, §3, §4, §5

[3] = target: T3, human calcitonin receptor (Homo sapiens, UniProt P30988); test: Assay (II)a functional CRE-luciferase assay, human calcitonin receptor; type: cell-based; details: Table 7; human calcitonin (CTa) receptor
T3 construct: expressed in transfected cells; host or cells: BHK570
T3 sequence (P30988 25-474): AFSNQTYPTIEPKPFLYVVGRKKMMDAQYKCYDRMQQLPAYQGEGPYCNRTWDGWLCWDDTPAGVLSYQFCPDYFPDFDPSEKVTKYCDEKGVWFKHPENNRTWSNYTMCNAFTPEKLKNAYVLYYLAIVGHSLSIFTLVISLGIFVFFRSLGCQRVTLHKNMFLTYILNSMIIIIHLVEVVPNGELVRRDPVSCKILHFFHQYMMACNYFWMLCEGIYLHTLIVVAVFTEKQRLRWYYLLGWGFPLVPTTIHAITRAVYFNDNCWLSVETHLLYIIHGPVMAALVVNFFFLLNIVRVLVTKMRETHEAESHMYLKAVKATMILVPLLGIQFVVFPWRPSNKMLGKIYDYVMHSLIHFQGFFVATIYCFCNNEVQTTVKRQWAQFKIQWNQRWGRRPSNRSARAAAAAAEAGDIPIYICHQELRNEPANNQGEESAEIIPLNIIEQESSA

[4] = Assay (IV) determination of solubility; type: physicochemical
Procedure, shortened: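 Eight 100 mM buffers (glycylglycine pH 3.0–5.0, bistrispropane pH 6.0–8.0) each received an equal volume of polypeptide dissolved in water at ~500 nmol/ml. Soluble polypeptide was measured by HPLC following 18 hours at room temperature and centrifugation.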

[5] = target: T4, human amylin receptor (amylin 3(a) receptor: human calcitonin receptor + RAMP-3) (Homo sapiens, UniProt O60896+P30988); test: Assay (II)a functional CRE-luciferase assay, human amylin receptor; type: cell-based; details: Table 2; BHK amylin 3(a)-receptor/CRE-luc cells
T4 construct: expressed in transfected cells; host or cells: BHK570
T4 sequence (P30988 25-474): T3 sequence (P30988 25-474)
T4 sequence (O60896 24-148 partner): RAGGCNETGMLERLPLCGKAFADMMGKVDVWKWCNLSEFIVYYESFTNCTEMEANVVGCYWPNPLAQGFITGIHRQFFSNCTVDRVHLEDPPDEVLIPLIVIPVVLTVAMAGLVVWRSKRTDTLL

- EC50 [1]: 0.824 nM
- EC50 [2]: 0.132 nM
- EC50 [3]: 0.31 nM
- solubility at 18 h ([4]; bistrispropane buffer, pH 6, pH 6.0, read-out: Solubility pH 6.0): 175 µM (≈ 819 µg/mL)
- solubility at 18 h ([4]; bistrispropane buffer, pH 6.5, pH 6.5, read-out: Solubility pH 6.5): 35 µM (≈ 164 µg/mL)
- solubility at 18 h ([4]; bistrispropane buffer, pH 7, pH 7.0, read-out: Solubility pH 7.0): 6 µM (≈ 28.1 µg/mL)
- solubility at 18 h ([4]; bistrispropane buffer, pH 7.5, pH 7.5, read-out: Solubility pH 7.5): 61 µM (≈ 285 µg/mL)
- solubility at 18 h ([4]; bistrispropane buffer, pH 8, pH 8.0, read-out: Solubility pH 8.0): 158 µM (≈ 739 µg/mL)
- solubility at 18 h ([4]; glycylglycine buffer, pH 3, pH 3.0, read-out: Solubility pH 3.0): > 200 µM
- solubility at 18 h ([4]; glycylglycine buffer, pH 4, pH 4.0, 18 hours at room temperature, Table 2, read-out: Solubility pH 4.0): > 200 µM
- solubility at 18 h ([4]; glycylglycine buffer, pH 4, pH 4.0, read-out: Solubility pH 4.0): > 200 µM
- solubility at 18 h ([4]; glycylglycine buffer, pH 5, pH 5.0, read-out: Solubility pH 5.0): 155 µM (≈ 725 µg/mL)
- EC50 [5]: 0.105 nM
SMILES: CC(C)C[C@H](NC(=O)[C@H](CCCNC(=N)N)NC(=O)[C@H](CCC(N)=O)NC(=O)[C@@H](NC(=O)[C@H](C)NC(=O)[C@@H]1CSSC[C@H](NC(=O)[C@H](Cc2c[nH]cn2)NC(=O)[C@H](Cc2c[nH]cn2)NC(=O)[C@H](Cc2c[nH]cn2)NC(=O)CC[C@H](NC(=O)CCCCCCCCCCCCCCCCCCC(=O)O)C(=O)O)C(=O)N[C@@H](CC(N)=O)C(=O)N[C@@H]([C@@H](C)O)C(=O)N[C@@H](C)C(=O)N[C@@H]([C@@H](C)O)C(=O)N1)[C@@H](C)O)C(=O)N[C@@H](C)C(=O)N[C@@H](CCC(=O)O)C(=O)N[C@@H](Cc1ccccc1)C(=O)N[C@@H](CC(C)C)C(=O)N[C@@H](Cc1c[nH]cn1)C(=O)N[C@@H](Cc1c[nH]cn1)C(=O)N[C@@H](CO)C(=O)N[C@@H](CO)C(=O)N[C@@H](CC(N)=O)C(=O)N[C@@H](CC(N)=O)C(=O)N[C@@H](Cc1ccccc1)C(=O)NCC(=O)N[C@@H](C)C(=O)N1CCC[C@H]1C(=O)N[C@@H](CC(C)C)C(=O)N[C@@H](CO)C(=O)N[C@@H](CO)C(=O)N[C@H](C(=O)N[C@@H](CC(N)=O)C(=O)N[C@H](C(=O)NCC(=O)N[C@@H](CO)C(=O)N[C@@H](CC(N)=O)C(=O)N[C@H](C(=O)N[C@@H](Cc1ccc(O)cc1)C(N)=O)[C@@H](C)O)C(C)C)[C@@H](C)O [Example 19, N-alpha-[(S)-4-Carboxy-4-(19-carboxynonadecanoylamino)butyryl]-His-His-[His1,Glu14,His17,Ala25,Pro26,Ser28,Ser29]-pramlintide] ({C20 diacid-γGlu}-HHHCNTATCATQRLAEFLHHSSNNFGAPLSSTNVGSNTY-NH2; disulfide 4-9 (inferred); C-terminus assumed)
